According to PubChem BioAssay (NCI):
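Interpolation was linear, between the two tested concentrations surrounding the appropriate level; five concentrations were tested over 48 hours in 96-well plates. TGI marks complete inhibition of growth.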

Tests used:
Assay in all cases: NCI tumour cell line growth inhibition, 48 h
786-0 renal = tested on: 786-0 renal
A498 renal = tested on: A498 renal
A549 NSCLC = tested on: A549 NSCLC
ACHN renal = tested on: ACHN renal
CAKI-1 renal = tested on: CAKI-1 renal
CCRF-CEM leukemia = tested on: CCRF-CEM leukemia
COLO 205 colon = tested on: COLO 205 colon
DLD-1 colon = tested on: DLD-1 colon
DMS 114 small cell lung = tested on: DMS 114 small cell lung
DMS 273 small cell lung = tested on: DMS 273 small cell lung
EKVX NSCLC = tested on: EKVX NSCLC
HCC-2998 colon = tested on: HCC-2998 colon
HCT-116 colon = tested on: HCT-116 colon
HCT-15 colon = tested on: HCT-15 colon
HL-60(TB) leukemia = tested on: HL-60(TB) leukemia
HOP-18 NSCLC = tested on: HOP-18 NSCLC
HOP-92 NSCLC = tested on: HOP-92 NSCLC
HT29 colon = tested on: HT29 colon
IGROV1 ovarian = tested on: IGROV1 ovarian
K-562 leukemia = tested on: K-562 leukemia
KM12 colon = tested on: KM12 colon
KM20L2 colon = tested on: KM20L2 colon
LOX IMVI melanoma = tested on: LOX IMVI melanoma
LXFL 529 NSCLC = tested on: LXFL 529 NSCLC
M14 melanoma = tested on: M14 melanoma
M19-MEL melanoma = tested on: M19-MEL melanoma
MALME-3M melanoma = tested on: MALME-3M melanoma
MOLT-4 leukemia = tested on: MOLT-4 leukemia
NCI-H226 lung = tested on: NCI-H226 lung
NCI-H23 lung = tested on: NCI-H23 lung
NCI-H522 lung = tested on: NCI-H522 lung
OVCAR-3 ovarian = tested on: OVCAR-3 ovarian
OVCAR-4 ovarian = tested on: OVCAR-4 ovarian
OVCAR-5 ovarian = tested on: OVCAR-5 ovarian
OVCAR-8 ovarian = tested on: OVCAR-8 ovarian
RPMI-8226 leukemia = tested on: RPMI-8226 leukemia
RXF 393 renal = tested on: RXF 393 renal
SF-268 CNS = tested on: SF-268 CNS
SF-295 CNS = tested on: SF-295 CNS
SF-539 CNS = tested on: SF-539 CNS
SK-MEL-2 melanoma = tested on: SK-MEL-2 melanoma
SK-MEL-28 melanoma = tested on: SK-MEL-28 melanoma
SK-MEL-5 melanoma = tested on: SK-MEL-5 melanoma
SK-OV-3 ovarian = tested on: SK-OV-3 ovarian
SN12C renal = tested on: SN12C renal
SNB-19 CNS = tested on: SNB-19 CNS
SNB-75 CNS = tested on: SNB-75 CNS
SNB-78 CNS = tested on: SNB-78 CNS
SW-620 colon = tested on: SW-620 colon
TK-10 renal = tested on: TK-10 renal
U251 CNS = tested on: U251 CNS
UACC-257 melanoma = tested on: UACC-257 melanoma
UACC-62 melanoma = tested on: UACC-62 melanoma
UO-31 renal = tested on: UO-31 renal
HOP-62 NSCLC = tested on: HOP-62 NSCLC
NCI-H460 lung = tested on: NCI-H460 lung
XF 498 CNS = tested on: XF 498 CNS

Measured: TGI

O=c1c2ccccc2c(=O)n2n1CC=CC2
> 100 µM: 786-0 renal | A498 renal | A549 NSCLC | ACHN renal | CAKI-1 renal | CCRF-CEM leukemia | COLO 205 colon | DLD-1 colon | DMS 114 small cell lung | DMS 273 small cell lung | EKVX NSCLC | HCC-2998 colon | HCT-116 colon | HCT-15 colon | HL-60(TB) leukemia | HOP-18 NSCLC | HOP-92 NSCLC | HT29 colon | IGROV1 ovarian | K-562 leukemia | KM12 colon | KM20L2 colon | LOX IMVI melanoma | LXFL 529 NSCLC | M14 melanoma | M19-MEL melanoma | MALME-3M melanoma | MOLT-4 leukemia | NCI-H226 lung | NCI-H23 lung | NCI-H522 lung | OVCAR-3 ovarian | OVCAR-4 ovarian | OVCAR-5 ovarian | OVCAR-8 ovarian | RPMI-8226 leukemia | RXF 393 renal | SF-268 CNS | SF-295 CNS | SF-539 CNS | SK-MEL-2 melanoma | SK-MEL-28 melanoma | SK-MEL-5 melanoma | SK-OV-3 ovarian | SN12C renal | SNB-19 CNS | SNB-75 CNS | SNB-78 CNS | SW-620 colon | TK-10 renal | U251 CNS | UACC-257 melanoma | UACC-62 melanoma | UO-31 renal

O=c1[nH]nc2ccccc2c1Cc1ccccc1
> 100 µM: 786-0 renal | A498 renal | A549 NSCLC | ACHN renal | CAKI-1 renal | CCRF-CEM leukemia | COLO 205 colon | DLD-1 colon | DMS 114 small cell lung | DMS 273 small cell lung | EKVX NSCLC | HCC-2998 colon | HCT-116 colon | HCT-15 colon | HOP-18 NSCLC | HOP-62 NSCLC | HOP-92 NSCLC | HT29 colon | IGROV1 ovarian | K-562 leukemia | KM12 colon | KM20L2 colon | LOX IMVI melanoma | M14 melanoma | M19-MEL melanoma | MALME-3M melanoma | MOLT-4 leukemia | NCI-H226 lung | NCI-H23 lung | NCI-H460 lung | OVCAR-3 ovarian | OVCAR-4 ovarian | OVCAR-5 ovarian | OVCAR-8 ovarian | RPMI-8226 leukemia | SF-268 CNS | SF-295 CNS | SF-539 CNS | SK-MEL-2 melanoma | SK-MEL-28 melanoma | SK-MEL-5 melanoma | SK-OV-3 ovarian | SN12C renal | SNB-19 CNS | SNB-75 CNS | SNB-78 CNS | SW-620 colon | TK-10 renal | U251 CNS | UACC-257 melanoma | UACC-62 melanoma | UO-31 renal | XF 498 CNS
